Measured values reported in ChEMBL document CHEMBL1759968, “Synthesis and biological evaluation of unsaturated keto and exomethylene D-arabinopyranonucleoside analogs: novel 5-fluorouracil analogs that target thymidylate synthase” (Eur J Med Chem, 2011).
Activity calls are given as the source filed them. The rule behind the calls is not given here.

Key:
Thymidylate synthase [1] = biological target: T1, Thymidylate synthase (Mus musculus, UniProt P07607); test: Inhibition of thymidylate synthase in mouse L1210 cells assessed as inhibition of tritium release from [5-3H]deoxycytidine after preincubation for 4 hrs by liquid scintillation counting; type: cell-based
T1 sequence (P07607 whole entry): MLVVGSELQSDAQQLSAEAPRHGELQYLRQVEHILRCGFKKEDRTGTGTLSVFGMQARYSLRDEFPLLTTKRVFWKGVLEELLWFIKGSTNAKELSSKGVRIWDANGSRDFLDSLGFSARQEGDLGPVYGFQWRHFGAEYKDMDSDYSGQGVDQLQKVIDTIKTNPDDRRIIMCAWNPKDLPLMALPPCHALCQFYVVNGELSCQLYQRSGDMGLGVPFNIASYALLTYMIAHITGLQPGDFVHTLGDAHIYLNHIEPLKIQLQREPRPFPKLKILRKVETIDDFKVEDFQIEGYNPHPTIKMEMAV

Thymidylate synthase [2] = biological target: T1, Thymidylate synthase; test: Inhibition of thymidylate synthase in mouse L1210 cells assessed as inhibition of tritium release from [5-3H]deoxycytidine after preincubation for 24 hrs by liquid scintillation counting; type: cell-based
Thymidylate synthase [3] = biological target: T1, Thymidylate synthase; test: Inhibition of thymidylate synthase in mouse L1210 cells assessed as inhibition of tritium release from [5-3H]deoxycytidine after preincubation for 15 mins by liquid scintillation counting; type: cell-based
Thymidylate synthase [4] = biological target: T1, Thymidylate synthase; test: Inhibition of thymidylate synthase in mouse L1210 cells assessed as inhibition of tritium release from [5-3H]deoxyuridine after preincubation for 4 hrs by liquid scintillation counting; type: cell-based
Thymidylate synthase [5] = biological target: T1, Thymidylate synthase; test: Inhibition of thymidylate synthase in mouse L1210 cells assessed as inhibition of tritium release from [5-3H]deoxyuridine after preincubation for 24 hrs by liquid scintillation counting; type: cell-based
[6] = Stability of compound in phosphate buffered saline up to 3 days; type: physicochemical; details: buffer, 72 h
Thymidylate synthase [7] = biological target: T1, Thymidylate synthase; test: Inhibition of thymidylate synthase in mouse L1210 cells assessed as inhibition of tritium release from [5-3H]deoxyuridine after preincubation for 15 mins by liquid scintillation counting; type: cell-based
[8] = tested on: Respiratory syncytial virus; test: Antiviral activity against Respiratory syncytial virus infected in HeLa cells assessed as inhibition of virus-induced cytopathic effect; type: functional, organism-based
L1210 [9] = test: Inhibition of RNA synthesis in mouse L1210 cells assessed as [5-3H]uridine incorporation in to RNA by liquid scintillation counting; type: functional, cell-based
Sindbis virus = test: Antiviral activity against Sindbis virus infected in Vero cells assessed as inhibition of virus-induced cytopathic effect; type: functional, organism-based
L1210 [10] = test: Inhibition of DNA synthesis in mouse L1210 cells assessed as [6-3H]2'-deoxyuridine incorporation in to DNA by liquid scintillation counting; type: functional, cell-based
Coxsackievirus B4 [11] = test: Antiviral activity against Human coxsackievirus B4 infected in HeLa cells assessed as inhibition of virus-induced cytopathic effect; type: functional, organism-based
L1210 [12] = test: Inhibition of RNA synthesis in mouse L1210 cells assessed as [5-3H]uridine incorporation in to RNA preincubated for 24 hrs by liquid scintillation counting; type: functional, cell-based
HeLa [13] = test: Cytostatic activity against human HeLa cells after 3 days by coulter counting analysis; type: functional, cell-based; details: 72 h
HeLa [14] = test: Cytostatic activity against human HeLa cells in presence of 20 uM 2'-deoxyuridine; type: functional, cell-based
HeLa [15] = test: Cytostatic activity against human HeLa cells in presence of 500 uM uracil; type: functional, cell-based
L1210 [16] = test: Cytostatic activity against mouse L1210 cells in presence of 20 uM 2'-deoxyuridine; type: functional, cell-based
L1210 [17] = test: Cytostatic activity against mouse L1210 cells after 2 days by coulter counting analysis; type: functional, cell-based; details: L1210, 48 h
[18] = tested on: Vesicular stomatitis virus; test: Antiviral activity against Vesicular stomatitis virus infected in HeLa cells assessed as inhibition of virus-induced cytopathic effect; type: functional, organism-based
Vaccinia virus = test: Antiviral activity against Vaccinia virus infected in HEL cells assessed as inhibition of virus-induced cytopathic effect; type: functional, organism-based; details: Orthopoxvirus vaccinia
HeLa [19] = test: Cytostatic activity against human HeLa cells in presence of 20 uM thymidine; type: functional, cell-based
L1210 [20] = test: Cytostatic activity against mouse L1210 cells in presence of 500 uM uridine; type: functional, cell-based
L1210 [21] = test: Inhibition of DNA synthesis in mouse L1210 cells assessed as [methyl-3H]thymidine incorporation in to DNA preincubated for 24 hrs by liquid scintillation counting; type: functional, cell-based
L1210 [22] = test: Cytostatic activity against mouse L1210 cells in presence of 20 uM thymidine; type: functional, cell-based
Human alphaherpesvirus 1 = test: Antiviral activity against Herpes simplex virus type-1 infected in HEL cells assessed as inhibition of virus-induced cytopathic effect; type: functional, organism-based
Human respirovirus 3 = test: Antiviral activity against Human parainfluenza virus 3 infected in Vero cells assessed as inhibition of virus-induced cytopathic effect; type: functional, organism-based
HeLa [23] = test: Cytostatic activity against human HeLa cells in presence of 500 uM uridine; type: functional, cell-based
[24] = tested on: Mammalian orthoreovirus 1; test: Antiviral activity against Reovirus 1 infected in Vero cells assessed as inhibition of virus-induced cytopathic effect; type: functional, organism-based
Coxsackievirus B4 [25] = test: Antiviral activity against Human coxsackievirus B4 infected in Vero cells assessed as inhibition of virus-induced cytopathic effect; type: functional, organism-based
Human alphaherpesvirus 2 = test: Antiviral activity against Herpes simplex virus type-2 infected in HEL cells assessed as inhibition of virus-induced cytopathic effect; type: functional, organism-based
L1210 [26] = test: Inhibition of DNA synthesis in mouse L1210 cells assessed as [6-3H]2'-deoxyuridine incorporation in to DNA preincubated for 24 hrs by liquid scintillation counting; type: functional, cell-based
[27] = tested on: Vesicular stomatitis virus; test: Antiviral activity against Vesicular stomatitis virus infected in HEL cells assessed as inhibition of virus-induced cytopathic effect; type: functional, organism-based
FM3A = test: Cytostatic activity against mouse FM3A cells after 2 days by coulter counting analysis; type: functional, cell-based; details: 48 h
Punta Toro virus = test: Antiviral activity against Punta Toro virus infected in Vero cells assessed as inhibition of virus-induced cytopathic effect; type: functional, organism-based
L1210 [28] = test: Cytostatic activity against mouse L1210 cells in presence of 500 uM uracil; type: functional, cell-based
CCRF-CEM = test: Cytostatic activity against human CEM cells after 3 days by coulter counting analysis; type: functional, cell-based; details: 72 h
L1210 [29] = test: Inhibition of DNA synthesis in mouse L1210 cells assessed as [methyl-3H]thymidine incorporation in to DNA by liquid scintillation counting; type: functional, cell-based
[30] = Stability of compound in phosphate buffer at pH 6.2 after 60 mins; type: physicochemical; details: pH 6.2, 1 h

SMILES	IC50 (Thymidylate synthase [1])	IC50 (Thymidylate synthase [2])	IC50 (Thymidylate synthase [3])	IC50 (Thymidylate synthase [4])	IC50 (Thymidylate synthase [5])	Stability [6]	IC50 (Thymidylate synthase [7])	Activity [8]	IC50 (L1210 [9])	Activity (Sindbis virus)	IC50 (L1210 [10])	Activity (Coxsackievirus B4 [11])	IC50 (L1210 [12])	IC50 (HeLa [13])	IC50 (HeLa [14])	IC50 (HeLa [15])	IC50 (L1210 [16])	Activity [18]	Activity (Vaccinia virus)	IC50 (HeLa [19])	further results
O=C1C=CCO[C@@H]1n1cc(F)c(=O)[nH]c1=O	0.95 µM	0.071 µM	> 10 µM	0.83 µM	0.063 µM	Unstable	8.1 µM														
C=C1[C@H](O)[C@H](O)CO[C@@H]1n1cc(F)c(O)nc1=O								inactive	> 100 µM	inactive	85 µM	inactive	282 µM	18 µM	12 µM	58 µM	66 µM	inactive	inactive	146 µM	IC50 (L1210 [17]): 21 µM; IC50 (L1210 [20]): 18 µM; IC50 (L1210 [21]): > 500 µM; IC50 (L1210 [22]): > 500 µM; Activity (Human alphaherpesvirus 1): inactive; Activity (Human respirovirus 3): inactive; IC50 (HeLa [23]): 79 µM; Activity [24]: inactive; Activity (Coxsackievirus B4 [25]): inactive; Activity (Human alphaherpesvirus 2): inactive; IC50 (L1210 [26]): 18 µM; Activity [27]: inactive; IC50 (FM3A): 1.9 µM; Activity (Punta Toro virus): inactive; IC50 (L1210 [28]): 18 µM; IC50 (CCRF-CEM): 97 µM; IC50 (L1210 [29]): > 500 µM
O=c1[nH]cc(F)c(=O)[nH]1 [FLUOROURACIL]	0.6 µM	0.06 µM	≥ 10 µM	0.22 µM	0.02 µM		7 µM	inactive	51 µM	inactive	0.97 µM	inactive	4.9 µM	0.45 µM	0.18 µM	1 µM	1.3 µM	inactive	inactive	1.5 µM	IC50 (L1210 [20]): 0.62 µM; IC50 (L1210 [21]): > 500 µM; IC50 (L1210 [22]): 21 µM; Activity (Human alphaherpesvirus 1): inactive; Activity (Human respirovirus 3): inactive; IC50 (HeLa [23]): 1.1 µM; Activity [24]: inactive; Activity (Coxsackievirus B4 [25]): inactive; Activity (Human alphaherpesvirus 2): inactive; IC50 (L1210 [26]): 0.37 µM; Activity [27]: inactive; IC50 (FM3A): 0.18 µM; Activity (Punta Toro virus): inactive; IC50 (L1210 [28]): 0.47 µM; IC50 (L1210 [29]): > 500 µM
C=C1[C@H](O)[C@H](O)CO[C@@H]1n1cc(F)c(=O)[nH]c1=O	5.5 µM	5.4 µM	8.2 µM	3.6 µM	0.57 µM	Stable	≥ 10 µM														Stability [30]: Stable
